The record followed here is patent publication US20240024412A1, “PHARMACEUTICAL COMPOSITION FOR TREATING CDI COMPRISING CLAY MINERAL COMPLEX, AND METHOD FOR PRODUCING SAME” (priority 2020, published 2024).

Molecules are shown by their SMILES.

The subject of this assay is C. difficile. As to the kind of experiment: mouse acute CDI model using dextran sulfate sodium (DSS), survival rate after oral administration. It counts as in vivo. The settings on record: for Mouse survival rate (%) according to type of administered drug: 10 mg/kg of vancomycin alone. How it is done: FIG. 3 is a diagram sequentially illustrating a series of experiments of being treated with dextran sodium sulfate (DSS), being infected with C. difficile, being administered with a bentonite-vancomycin complex, and observing survival rates, in order to produce a mouse acute CDI model. […]
In order to set the mixing ratio of the bentonite-antibiotics complex, vancomycin was orally administered at concentrations of 2, 20, and 200 mg/kg in a mouse acute CDI model using DSS, and the results were shown in Table 2 below and FIG. 5.
In order to confirm a synergistic effect on CDI treatment through the bentonite-antibiotics complex, according to the daily intake, the bentonite was administered at a dose concentration of 50 mg/kg and the vancomycin was administered at a dose concentration of 5 mg/kg, and the survival rates of mice were confirmed as compared to cases of administering 10 mg/kg of vancomycin alone, 50 mg/kg of bentonite alone, and saline alone as control groups thereto.

`CN[C@H](CC(C)C)C(=O)N[C@H]1C(=O)N[C@@H](CC(N)=O)C(=O)N[C@H]2C(=O)N[C@H]3C(=O)N[C@H](C(=O)N[C@H](C(=O)O)c4cc(O)cc(O)c4-c4cc3ccc4O)[C@H](O)c3ccc(c(Cl)c3)Oc3cc2cc(c3O[C@@H]2O[C@H](CO)[C@@H](O)[C@H](O)[C@H]2O[C@H]2C[C@](C)(N)[C@H](O)[C@H](C)O2)Oc2ccc(cc2Cl)[C@H]1O` [Vancomycin, vancomycin]: the “Mouse survival rate (%) according to type of administered drug” value was 1/6 (17%) (D+14) and 6/6 (100%) (D-0). In addition, the “Mouse survival rate (%) according to vancomycin dose” value (vancomycin 2 mg/kg orally, D+14) is “(20%)”; the “Mouse survival rate (%) according to vancomycin dose” value (vancomycin 2 mg/kg orally, D+14, listed as vancomycin) worked out at 20%; the “Mouse survival rate (%) according to vancomycin dose” value (vancomycin 2 mg/kg orally, D-0) was “(100%)”; the “Mouse survival rate (%) according to vancomycin dose” value (vancomycin 20 mg/kg orally, D+14) is recorded as 5/5 (100%); the “Mouse survival rate (%) according to vancomycin dose” value (vancomycin 20 mg/kg orally, D+14, listed as vancomycin) turned out to be 100%; the “Mouse survival rate (%) according to vancomycin dose” value (vancomycin 20 mg/kg orally, D-0) is recorded as 5/5 (100%). The “Mouse survival rate (%) according to vancomycin dose” value was 5/5 (100%) (vancomycin 200 mg/kg orally, D+14); 100% (vancomycin 200 mg/kg orally, D+14, listed as vancomycin); 5/5 (100%) (vancomycin 200 mg/kg orally, D-0).
